# Assay results: patent US9730906B2, “α-derivatives of cis-monounsaturated fatty acids for use as medicines” (UNIVERSITAT DE LES ILLES BALEARS, priority 2008, dated 2017)
# Tests used:
# [1] = tested on: human brain cancer (SF767), human lung cancer cells (A549), human pancreas cancer cells (BXPC3); test: Na-OHOD alone and combined with anti-tumour pharmaceuticals in immune-deprived mice with human tumours; assay type: in vivo; settings: Na-OHOD 600 mg/kg
# Procedure: FIG. 8A. Effect of Na-OHOD (sodium salt of OHOD) and combinations with various pharmaceuticals: temozolomide (TMZ), erlotinib, gemcitabine and cisplatin (cis-Pt) on various types of human cancers in models. Effect of treatments with vehicle (Control), temozolomide (TMZ, 80 mg/kg), Na-OHOD (OHOD, 600 mg/kg) and TMZ plus Na-OHOD (simultaneously at the same doses) for 60 days in immune-deprived mice infected with human brain cancer (SF767).
# FIG. 8B. Effect of Na-OHOD (sodium salt of OHOD) and combinations with various pharmaceuticals: temozolomide (TMZ), erlotinib, gemcitabine and cisplatin (cis-Pt) on various types of human cancers in models. Idem, with Na-OHOD (OHOD, 600 mg/kg), erlotinib (Erlotinib, 40 mg/kg), cisplatin (cis-Pt, 100 mg/kg), plus erlotinib (OHO Er) or Na-OHOD plus cisplatin (OHO Pt) in nude mice infected with human lung cancer cells (A549).
# FIG. 8C. Effect of Na-OHOD (sodium salt of OHOD) and combinations with various pharmaceuticals: temozolomide (TMZ), erlotinib, gemcitabine and cisplatin (cis-Pt) on various types of human cancers in models. Idem with Na-OHOD (OHOD, 600 mg/kg), Gemcitabine (Gemcitab, 40 mg/kg) or Na-OHOD plus Gemcitabine (OHO Gem) using the same doses in nude mice infected with human pancreas cancer cells (BXPC3). […]
# lung cancer cells (A549) = test: Culture plate invasion model, lung cancer cells (A549); assay type: cell-based, human; settings: 50 μM and 100 μM, different times, vs untreated cells, p<0.05
# Procedure: FIG. 5A. Invasive capacity of lung cancer cells (A549) in culture, in the absence (control, C) or presence of OHOD (2-hydroxy-9-cis-octadecenoic acid) at 50 μM (M50) and 100 μM (M100) and at different times.
# FIG. 5B. Invasive capacity of lung cancer cells (A549) in culture, in the absence (control, C) or presence of OHOD (2-hydroxy-9-cis-octadecenoic acid) at 50 μM (M50) and 100 μM (M100) and at different times.
# Furthermore, α-derivatives of cis-monounsaturated fatty acids are capable of inducing cadherin expression. Cadherin is a cellular adhesion protein. Cells expressing cadherin are often not displaced from their tissue location as they adhere to the surrounding cells. Tumour cells that lose the capacity to synthesise this protein can migrate from the tissue in which they were generated to other body tissues where they can develop a new tumour focus by the process known as metastasis. In treatments with α-derivatives of cis-monounsaturated the fatty acids, a significant increase in cadherin levels was observed (FIG. 4). The invasive capacity of cancer cells was also investigated in a culture plate invasion model. […] Then, an area of the culture dish is scraped and the number of cells invading this region at various times, in the presence and absence of the anti-metastasis compound is counted.
SMILES,"anti-tumour effectiveness of Na-OHOD alone vs temozolomide, erlotinib, gemcitabine, cisplatin [1]",invasive capacity (number of invasive cells) (lung cancer cells (A549))
CCCCCCCC/C=C\CCCCCCC(O)C(=O)[O-].[Na+] (centres unmarked) [Na-OHOD],more effective,
"CCCCCCCC/C=C\CCCCCCC(O)C(=O)O (stereo not drawn) [OHOD, α-Hydroxy-cis-Δ9-octadecenoic]",,lower invasive capacity
